“And” between values parts separate entries of the source, which are not always exact repeats. Identical values can stand only once. “Also recorded” adds a separate entry of the source.
What was measured:
elevated heart rate [1] = assay: In vivo dog experiments: heart rate offset after iontophoretic ESA drug with pretreatment (Example A); design: species or system labrador dogs; details: for Offset Slope Component (0-5) min: 0-5 min after heart rate begins to decline; for Offset Slope Component (5-10) min: 5-10 min after decline begins; for Offset Slope Component (10-30) min: 10-30 min after decline begins; for Change in Heart Rate (peak minus baseline) / Peak Heart Rate: Table II; for Onset Slope: baseline at onset time to peak heart rate; for Offset time: drug delivery stopped until within 20 bpm of baseline; for Offset Slope: drug shut-off to 20 bpm above baseline; for Delay: drug shut-off to start of heart rate decline; for t 1/2 of elevated heart rate decay: exponential fit; for Onset time: start of delivery to start of increase in heart rate; for Time Start Decline: time when elevated heart rate began to decline
elevated heart rate [2] = assay: Additional in vivo dog experiments: dermal clearance enhancer pretreatment then arbutamine TDI (Example C); design: species or system labrador dogs
Procedure: Additional experiments were performed to study the effect of certain compositions on the offset time and dermal clearance in dogs.
In these experiments, the formulation to be tested was applied either topically or by transdermal iontophoresis (TDI) as described below.
Six labrador dogs (20 to 30 kg) were trained to lie quietly on a table. Before each experiment, three ECG electrodes (one lead) were applied on shaved areas of the back (near the front legs) to obtain the heart rate. The outer hind leg area (either right or left) was shaved prior to each experiment, with care taken not to cut or visibly damage the skin. The area was cleaned with soap and water and the skin was then […] using an alcohol swab followed by skin preparation with 3M One-Step-Prep™ tape.
Each vasodilator that was delivered by TDI used a 1.8 cm^2 electrode (Graphic Controls, Buffalo, N.Y.) containing the vasodilator in a gel at the concentrations listed in experimental methods section. In all experiments, an indifferent electrode containing a phosphate-buffered-saline gel was applied to the skin in conjunction with the electrode containing the vasodilator. Each vasodilator tested was applied for 10 minutes using a current of 0.6 mA/cm^2. During this time the heart rate was continuously recorded (at 5 second intervals) with the ESA Research System. The delivery electrodes were then removed, and any excess gel adhering to the skin was gently removed using a tissue.
Each topically applied vasodilator was applied to the skin in a volume of approximately 0.25 ml. The agent was allowed to absorb into the skin, during which time the heart rate was continuously recorded for 10 minutes using the ESA Research System.
To test if heat alone would produce sufficient vasodilation, a 60° C. hot pack was applied to the skin 10 minutes prior to drug delivery, during which time the heat rate was continuously recorded by the ESA System. Once drug delivery electrodes were applied, the heat pack was reheated and placed on top of them for the duration of the study.
The purpose of this treatment was to produce an elevated heart rate response of at least 40 beats-per-minute above baseline lasting for at least 30 minutes.
^1/ The dose (ITCA) was calculated by multiplying the applied current density (mA/cm^2) by the duration of delivery (minutes) and the drug concentration (%) and the area of the electrode (cm^2). […] The units of ITCA are mA.minutes.
The important variables for this analysis are:
1) delay between time when drug administration was stopped and start of decline in heart rate;
2) the time (minutes) to reach successive percent levels (i.e. 10, 20, 30, 40, and 50% decline) from the point of maximum change in heart rate^2.
3) the half-life (minutes) of the heart rate decline obtained from an exponential fit of the offset slope.
A combination of over-the-counter (OTC) and proprietary formulations were selected for comparison. […] Two dogs received each treatment at least one time.
The six dogs are identified in the table as BA, BB, BO, MI, PO and SA, followed by the experimental identification number. These dogs received control (no pretreatment) and five DCE pretreatment regimens.

[3] = Redness/irritation index of topical formulations on human volunteers (Example B); details: for Redness/irritation index, Mean: 7 subjects
Procedure: In these experiments data were collected from seven human volunteers concerning the effects of topical dermal clearance enhancers. […] Observations were recorded at 10, 20, and 30 minute intervals. The following redness/irritation index was used to categorize vasodilation/irritation:
0=no redness, i.e., erythema;
W=Wheal irritation, i.e., edemic core surrounded by an erythemic ring; and
The presence of vasodilation was determined by degree of redness of the skin. Wheal irritation was signified by the presence of an erythemic ring surrounding an upraised pale center. Whitening was denoted by a pale area with no upraising or redness.

[4] = Table VII, single dog run, listed as 1% Tolazoline

With c1ccc(CC2=NCCN2)cc1 [Tolazoline] the “Offset Slope Component (0-5) min” value (elevated heart rate [1]; listed as 5) was -0.90 beats per minute per minute, the “Offset Slope Component (0-5) min” value (elevated heart rate [1]; listed as 6) was -1.40 beats per minute per minute and the “Offset Slope Component (5-10) min” value (elevated heart rate [1]; listed as 5) was -3.30 beats per minute per minute. The “Offset Slope Component (5-10) min” value (elevated heart rate [1]; listed as 6) was -3.90 beats per minute per minute, the “Percent decline in heart rate, ranking” value (elevated heart rate [1]; 10-20 minute interval, FIG. 1) was “greatest percent decline” and the “Offset Slope Component (10-30) min” value (elevated heart rate [1]; listed as 5) was -0.70 beats per minute per minute. The “Offset Slope Component (10-30) min” value (elevated heart rate [1]; listed as 6) was -0.58 beats per minute per minute, the “Delay to onset of heart rate decline, ranking” value (elevated heart rate [1]; FIG. 2) was “shortest delay” and the “Heart rate decay half-life, ranking” value (elevated heart rate [1]; FIG. 2) was “relatively short half-lives”. For the same compound, the “Reduction in heart rate offset” value (elevated heart rate [1]; FIGS. 3 and 4) was “dramatic reduction in heart rate offset”, the “Change in Heart Rate (peak minus baseline)” value (elevated heart rate [1]; listed as 5) was 53 bpm and the “Peak Heart Rate” value (elevated heart rate [1]; listed as 5) was 119 bpm. The “Change in Heart Rate (peak minus baseline)” value (elevated heart rate [1]; listed as 6) was 33 bpm, the “Peak Heart Rate” value (elevated heart rate [1]; listed as 6) was 121 bpm and the “Total time (startup) thru offset plateau: w/in 20 bpm of baseline” value (elevated heart rate [1]; Table IV) was 34 min. For the same compound, the “Total time (startup) thru offset plateau: reached baseline” value (elevated heart rate [1]; Table IV, listed as 5) was 60 min, the “Total time (startup) thru offset plateau: reached baseline” value (elevated heart rate [1]; Table IV, listed as 6) was 30 min and the “Onset Slope” value (elevated heart rate [1]; listed as 5) was 4.70 beats per minute per minute. For the same compound, the “Onset Slope” value (elevated heart rate [1]; listed as 6) was 3.50 beats per minute per minute, the Offset time (elevated heart rate [1]; listed as 5) was 34.00 min and the Offset time (elevated heart rate [1]; listed as 6) was 8.00 min. For the same compound, the “Offset Slope” value (elevated heart rate [1]; listed as 5) was -1.00 beats per minute per minute, the “Offset Slope” value (elevated heart rate [1]; listed as 6) was -3.20 beats per minute per minute and the Delay (elevated heart rate [1]; listed as 5) was 2.00 min. The Delay (elevated heart rate [1]; listed as 6) was 4.00 min, the “t 1/2 of elevated heart rate decay” value (elevated heart rate [1]; Table IV, listed as 5) was 14.06 min and the “t 1/2 of elevated heart rate decay” value (elevated heart rate [1]; Table IV, listed as 6) was 6.77 min. For the same compound, the “Reduction in offset time” value (elevated heart rate [1]; iontophoretic pre-delivery) was “found effective when pre-delivered iontophoretically; also recorded: significant reduction in offset time”, the Onset time (elevated heart rate [1]; listed as 5) was 10.00 min and the Onset time (elevated heart rate [1]; listed as 6) was 7.00 min. The “Time Start Decline” value (elevated heart rate [1]; listed as 5) was 20.00 min, the “Time Start Decline” value (elevated heart rate [1]; listed as 6) was 21.00 min and the Dermal clearance enhancement (elevated heart rate [1]; topical pretreatment) was “no measurable dermal clearance enhancement”. For the same compound, the “CHANGE IN HEART RATE, Mean” value (elevated heart rate [2]; Table VII, mean of runs) was 80.64 BPM, the “DELAY TIME, Mean” value (elevated heart rate [2]; Table VII, mean of runs) was 2.76 min and the “HALF-LIFE, Mean” value (elevated heart rate [2]; Table VII, mean of runs) was 16.35 min. The “TIME TO REACH 10% DECLINE IN HEART RATE, Mean” value (elevated heart rate [2]; Table VII, mean of runs) was 6.44 min, the “TIME TO REACH 20% DECLINE IN HEART RATE, Mean” value (elevated heart rate [2]; Table VII, mean of runs) was 9.83 min and the “TIME TO REACH 30% DECLINE IN HEART RATE, Mean” value (elevated heart rate [2]; Table VII, mean of runs) was 13.40 min. The “TIME TO REACH 40% DECLINE IN HEART RATE, Mean” value (elevated heart rate [2]; Table VII, mean of runs) was 18.38 min, the “TIME TO REACH 50% DECLINE IN HEART RATE, Mean” value (elevated heart rate [2]; Table VII, mean of runs) was 27.16 min and the “CHANGE IN HEART RATE” value (elevated heart rate [2]; [4]) was 53.00 BPM and 101.93 BPM and 80.67 BPM and 84.26 BPM and 93.54 BPM and 69.23 BPM and 92.75 BPM and 67.50 BPM and 97.31 BPM and 84.22 BPM and 64.17 BPM and 87.58 BPM and 72.15 BPM. For the same compound, the “DELAY TIME” value (elevated heart rate [2]; [4]) was 2.00 min and 5.28 min and 0.67 min and 1.33 min and 1.77 min and 5.27 min and 1.81 min and 0.39 min and 0.00 min and 0.22 min and 4.43 min and 8.02 min and 4.65 min, the “TIME TO REACH 10% DECLINE IN HEART RATE” value (elevated heart rate [2]; [4]) was 7.24 min and 9.14 min and 2.56 min and 9.27 min and 4.71 min and 8.58 min and 4.56 min and 4.31 min and 2.17 min and 4.63 min and 6.46 min and 9.64 min and 10.49 min and the “TIME TO REACH 20% DECLINE IN HEART RATE” value (elevated heart rate [2]; [4]) was 8.85 min and 12.89 min and 4.46 min and 15.49 min and 7.55 min and 12.60 min and 10.28 min and 12.20 min and 4.12 min and 7.66 min and 8.49 min and 11.25 min and 11.90 min. For the same compound, the “TIME TO REACH 30% DECLINE IN HEART RATE” value (elevated heart rate [2]; [4]) was 10.45 min and 16.35 min and 6.18 min and 20.96 min and 10.17 min and 19.78 min and 19.70 min and 14.89 min and 7.47 min and 11.55 min and 10.55 min and 12.87 min and 13.30 min, the “TIME TO REACH 40% DECLINE IN HEART RATE” value (elevated heart rate [2]; [4]) was 12.29 min and 19.40 min and 7.61 min and 26.43 min and 14.58 min and 30.11 min and 28.29 min and 17.58 min and 12.20 min and 26.06 min and 12.63 min and 16.89 min and 14.83 min and the “TIME TO REACH 50% DECLINE IN HEART RATE” value (elevated heart rate [2]; [4]) was 19.86 min and 22.45 min and 9.04 min and 31.33 min and 21.82 min and 35.27 min and 60.00 min and 20.27 min and 19.92 min and 66.00 min and 14.68 min and 20.44 min and 18.05 min. For the same compound, the HALF-LIFE (elevated heart rate [2]; heart rate decline, Table VII, single dog run, listed as 1% Tolazoline) was 5.75 min and 10.87 min and 20.60 min and 12.81 min and 18.60 min and 18.02 min and 11.30 min and the “response in screening study” value (elevated heart rate [2]; two dogs per treatment) was “most pronounced response”.
For COC(=O)c1ccccc1O [Methyl Salicylate, Methyl salicylate], the “Redness/irritation index, Mean” value ([3]; 10 min) was 0, the Redness/irritation index ([3]; 10 min, subject CV) was 0 and the Redness/irritation index ([3]; 10 min, subject four) was 0. It also gave a Redness/irritation index ([3]; 10 min, subject one) of 0, a Redness/irritation index ([3]; 10 min, subject three) of 0 and a Redness/irritation index ([3]; 10 min, subject two) of 0. The “Redness/irritation index, Mean” value ([3]; 20 min) was 0, the Redness/irritation index ([3]; 20 min, subject CV) was 0 and the Redness/irritation index ([3]; 20 min, subject three) was 0. For the same compound, the Redness/irritation index ([3]; 20 min, subject two) was 0, the “Redness/irritation index, Mean” value ([3]; 30 min) was 0 and the Redness/irritation index ([3]; 30 min, subject CV) was 0. For the same compound, the Redness/irritation index ([3]; 30 min, subject three) was 0 and the Redness/irritation index ([3]; 30 min, subject two) was 0.

Source: patent publication US5383848A, “Iontophoretic administration of drugs” (Gensia, Inc., priority 1991, dated 1995)
